Source: US12358919B2, “Antibacterial compounds” (Universita' degli Studi di Siena, priority 2019, dated 2025)
Where two headings read alike, the source gives them in different places. Blank lines part the entries; values can stand above or below the molecule they belong to. Where a SMILES comes first, the peptide text is derived from it. Bridges are numbered along the chain shown (N, C = ends). [ ]: non-standard residue; d: D form. The star is where a group is joined. X1 = CC[C@H](C)CCCCC(=O)*; Dab = NCC[C@H](N)C(=O)O

Legend:
[1] = tested on: polymyxin E1-resistant Acinetobacter baumannii (strain N50) clinical isolate; type: cell-based; details: A. baumannii N50; colistin alone
Description: (§1) Growth inhibition or killing of bacteria was investigated using conventional methods widely described in the scientific literature. Parameters such as the Minimum Inhibitory Concentration (MIC) were determined as described in Clinical Laboratory Standard Institute (CLSI) document M07 “Methods for Dilution Antimicrobial Susceptibility Tests for Bacteria That Grow Aerobically, 11th Edition” (2018). Synergistic activity of the compounds described in the present specification were determined by measuring the variation of the MIC's compound in the absence and presence of a sub-inhibitory concentration of a suitable antibacterial agent, such as polymyxin E1. Furthermore, the Fractional Inhibitory Concentrations (FICs) were measured using a chequerboard analysis to determine the average FIC index (FICI), whose value is known to characterize the interaction between two compounds and/or drugs (≤0.5, synergistic interaction; >0.5 and <2, no interaction, additive effect; ≥2, antagonistic interaction). Furthermore, the selectivity of the compounds was investigated by measuring their cytotoxic effect on mammalian cell lines (e.g. HeLa cells).
“Chequerboard” method was used to further investigate the synergistic activity of pyrazolo[4,3-b]pyridin-6-carboxamides when this compounds are combined with polymyxin E1. […]

[2] = tested on: Acinetobacter baumannii (N50 strain), multidrug-resistant clinical isolate resistant to polymyxin E1; assay: Time-kill curve analysis (bactericidal activity); type: cell-based; details: polymyxin E1 2 mg/L alone; inoculum 10^5 CFU/mL
Description: FIG. 1: bactericidal activity on Acinetobacter baumannii (N50 strain) of polymyxin E1, 2 mg/L (square); polymyxin E1, 2 mg/L+compound Ib 32 mg/L (triangles); control (circles).
(§2) Several methods were used to investigate the synergistic activity of the compounds, including (a) the determination of the MIC in the presence of a sub-inhibitory concentration of a suitable antibacterial agent, (b) the determination of the average FICI using a chequerboard analysis and (c) the time-kill curve analysis of a suitable agent (at a sub-inhibitory concentration) in the absence and presence of the pyrazolo[4,3-b]pyridin-6-carboxamide compound at a fixed concentration of 2 or 8 mg/L.
The kinetics of bacterial killing offers an additional mean to characterize the antibacterial activity of compounds, also in combination with other antimicrobial agents. Compounds or a combination thereof are defined as bactericides when the viable bacterial load is decreased by at least 3 log10 (EUCAST, cit.).
This analysis was carried with a multidrug-resistant Acinetobacter baumannii clinical isolate showing resistance to polymyxin E1. The time-kill curves were generated starting from a bacterial inoculum of 10^5 CFU/mL. Bacterial count was determined at several time intervals in the absence (control) or presence of 2 mg/L polymyxin E1 (corresponding to the resistance breakpoint, EUCAST, cit.) supplemented with 32 mg/L of compound Ib (FIG. 1).

[3] = tested on: Escherichia coli CCUG^T; assay: microbe, parasite or virus in culture; type: cell-based; details: for Potentiation fold: ratio MICcompound/MICcompound+polymyxin E; for MIC in presence of colistin: with 0.25xMIC polymyxin E1 (0.12 mg/L); for MIC: Escherichia coli
Description: as §1, §2
(§3) The MIC of the compound was determined alone and in the presence of a fixed and sub-inhibitory concentration of a suitable antibacterial agent of the polymyxin class, such as polymyxin E1 (colistin). The potentiation fold was computed as the ratio MICcompound/MICcompound+polymyxin E. Tested organisms included Escherichia coli CCUG^TKlebsiella pneumoniae ATCC 13833 and Acinetobacter baumannii ATCC 17978, which show a colistin MIC of 0.5, 0.5 and 1 mg/L, respectively.

[4] = tested on: Klebsiella pneumoniae ATCC 13833; assay: microbe, parasite or virus in culture; type: cell-based; details: for Potentiation fold: ratio MICcompound/MICcompound+polymyxin E; for MIC in presence of colistin: with 0.25xMIC polymyxin E1 (0.12 mg/L); for MIC: Klebsiella pneumoniae, ATCC13833
Description: as §1, §2, §3

[5] = tested on: Acinetobacter baumannii ATCC 17978; assay: microbe, parasite or virus in culture; type: cell-based; details: for Potentiation fold: ratio MICcompound/MICcompound+polymyxin E; for MIC in presence of colistin: with 0.25xMIC polymyxin E1 (0.25 mg/L); for MIC: Acinetobacter baumannii, ATCC17978
Description: as §1, §2, §3

[6] = tested on: K. pneumoniae ATCC 13833; assay: Chequerboard analysis with polymyxin E1 (average FIC index); type: cell-based, Klebsiella pneumoniae; details: compound + polymyxin E1
[7] = tested on: Enterococcus faecalis ATCC 29212; assay: MIC, broth microdilution (direct antibacterial activity); type: cell-based
Description: as §1
(§4) The MIC values were determined using the broth microdilution method as described in document M07 using Mueller-Hinton broth as culture medium and an initial bacterial inoculum size of 5×10^5 CFU/mL, with a final volume of 100 μL per well in a 96-well microplate. Bacterial strains were Bacillus subtilis ATCC 6633, Enterococcus faecalis ATCC 29212, Streptococcus pyogenes ATCC 12344 and Staphylococcus aureus ATCC 25923. The tested compound concentration ranged from 512 to 0.25 mg/L. Plates were incubated for 18-24 hours at 35±2° C. prior to results analysis.

[8] = tested on: Streptococcus pyogenes ATCC 12344; assay: as above; type: cell-based
Description: as §1, §4

[9] = tested on: Bacillus subtilis ATCC 6633; assay: as above; type: cell-based
Description: as §1, §4

[10] = tested on: Staphylococcus aureus ATCC 25923; assay: as above; type: cell-based
Description: as §1, §4

[11] = tested on: A. baumannii ATCC 17978; assay: Chequerboard analysis with polymyxin E1 (average FIC index); type: cell-based, Acinetobacter baumannii; details: compound + polymyxin E1
[12] = tested on: K. pneumoniae SI-4B; assay: as above; type: cell-based, Klebsiella pneumoniae; details: K. pneumoniae SI-4B (colistin-resistant); compound + polymyxin E1
[13] = tested on: E. coli CCUG^T; assay: as above; type: cell-based, Escherichia coli; details: compound + polymyxin E1
[14] = ATCC29212, E. faecalis ATCC 29212, compound alone, 18-24 h, read-out: MIC
[15] = ATCC12344, S. pyogenes ATCC 12344, compound alone, 18-24 h, read-out: MIC
[16] = ATCC6633, B. subtilis ATCC 6633, compound alone, 18-24 h, read-out: MIC
[17] = ATCC25923, S. aureus ATCC 25923, compound alone, 18-24 h, read-out: MIC
[18] = E. coli CCUG^T, compound alone, read-out: MIC
[19] = K. pneumoniae ATCC 13833, compound alone, read-out: MIC
[20] = A. baumannii ATCC 17978, compound alone, read-out: MIC

Structure (SMILES): CC[C@H](C)CCCCC(=O)N[C@@H](CCN)C(=O)N[C@H](C(=O)N[C@@H](CCN)C(=O)N[C@H]1CCNC(=O)[C@H]([C@@H](C)O)NC(=O)[C@H](CCN)NC(=O)[C@H](CCN)NC(=O)[C@H](CC(C)C)NC(=O)[C@@H](CC(C)C)NC(=O)[C@H](CCN)NC1=O)[C@@H](C)O [colistin, polymyxin E1, reference compound] (X1-[Dab]T[Dab][Dab][Dab][dL]L[Dab][Dab]T; lactam 4-C (inferred); N-terminus assumed)
MIC Colistin [1]: 8 µg/mL | bactericidal activity (killing of the bacterial population) [2]: unable to achieve complete and irreversible killing of the bacterial population | colistin MIC ([3]; Escherichia coli CCUG^T, colistin alone): 0.5 µg/mL | colistin MIC ([4]; Klebsiella pneumoniae ATCC 13833, colistin alone): 0.5 µg/mL | colistin MIC ([5]; Acinetobacter baumannii ATCC 17978, colistin alone): 1 µg/mL

Structure (SMILES): CC(C)n1c(=O)c(C(=O)NC23CC4CC(CC(C4)C2)C3)c(O)c2nn(C)cc21 [Ix, N-(Adamantan-1-yl)-4,5-dihydro-7-hydroxy-2-methyl-5-oxo-4-(2-propyl)-2H-pyrazolo[4,3-b]pyridin-6-carboxamide]
Average FIC index [6]: 0.33 | MIC ([7]; ATCC29212): 32 µg/mL | MIC ([8]; ATCC12344): 32 µg/mL | MIC ([9]; ATCC6633): 64 µg/mL | MIC ([10]; ATCC25923): 128 µg/mL | Average FIC index [11]: 0.27 | Average FIC index [12]: 0.39 | Potentiation fold ([3]; E. coli CCUG^T): ≥64 | MIC in presence of colistin ([3]; E. coli CCUG^T): 8 µg/mL | MIC [3]: > 512 µg/mL | Potentiation fold ([4]; K. pneumoniae ATCC 13833): ≥64 | MIC in presence of colistin ([4]; K. pneumoniae ATCC 13833): 8 µg/mL | MIC [4]: > 512 µg/mL | Potentiation fold ([5]; A. baumannii ATCC 17978): ≥64 | MIC in presence of colistin ([5]; A. baumannii ATCC 17978): 8 µg/mL | MIC [5]: > 512 µg/mL

Structure (SMILES): CCCCn1c(=O)c(C(=O)N[C@@H](Cc2ccccc2)C(=O)OC(C)(C)C)c(O)c2nn(C)cc21 [Iad, 1,1-Dimethylethyl (S)-2-[4-(1-butyl)-4,5-dihydro-7-hydroxy-2-methyl-5-oxo-2H-pyrazolo[4,3-b]pyridin-6-carboxamido]-3-phenylpropanoate]
MIC [7, 14]: 128 µg/mL | MIC [8, 15]: 64 µg/mL | MIC [9, 16]: 32 µg/mL | MIC [10, 17]: 256 µg/mL | Potentiation fold ([3]; E. coli CCUG^T): ≥16 | MIC in presence of colistin ([3]; E. coli CCUG^T): 32 µg/mL | MIC [3, 18]: > 512 µg/mL | Potentiation fold ([4]; K. pneumoniae ATCC 13833): ≥16 | MIC in presence of colistin ([4]; K. pneumoniae ATCC 13833): 32 µg/mL | MIC [4, 19]: > 512 µg/mL | Potentiation fold ([5]; A. baumannii ATCC 17978): ≥4 | MIC in presence of colistin ([5]; A. baumannii ATCC 17978): 128 µg/mL | MIC [5, 20]: > 512 µg/mL

MIC [7, 14]: 64 µg/mL | MIC [8, 15]: 16 µg/mL | MIC [9, 16]: 32 µg/mL | MIC [10, 17]: 32 µg/mL | MIC in presence of colistin ([3]; E. coli CCUG^T): 8 µg/mL | MIC [3, 18]: > 512 µg/mL | MIC in presence of colistin ([4]; K. pneumoniae ATCC 13833): 16 µg/mL | MIC [4, 19]: > 512 µg/mL | MIC in presence of colistin ([5]; A. baumannii ATCC 17978): 8 µg/mL | MIC [5, 20]: > 512 µg/mL
Structure (SMILES): CC(C)n1c(=O)c(C(=O)NC2CCCCCCC2)c(O)c2nn(C)cc21 [Iz, N-Cyclooctyl-4,5-dihydro-7-hydroxy-2-methyl-5-oxo-4-(2-propyl)-2H-pyrazolo[4,3-b]pyridin-6-carboxamide]
Potentiation fold ([3]; E. coli CCUG^T): ≥64 | Potentiation fold ([4]; K. pneumoniae ATCC 13833): ≥32 | Potentiation fold ([5]; A. baumannii ATCC 17978): ≥64

Structure (SMILES): CCCCn1c2c(c(O)c(C(=O)NC34CC5CC(CC(C5)C3)C4)c1=O)N(CCO)NC2 [Ip, N-(Adamantan-1-yl)-4-(1-butyl)-4,5-dihydro-7-hydroxy-1-(2-hydroxyethyl)-5-oxo-2H-pyrazolo[4,3-b]pyridin-6-carboxamide]
Average FIC index [6]: 0.32 | Potentiation fold ([3]; E. coli CCUG^T): ≥16 | MIC in presence of colistin ([3]; E. coli CCUG^T): 32 µg/mL | MIC [3, 18]: > 512 µg/mL | Potentiation fold ([4]; K. pneumoniae ATCC 13833): ≥32 | MIC in presence of colistin ([4]; K. pneumoniae ATCC 13833): 16 µg/mL | MIC [4, 19]: > 512 µg/mL | Potentiation fold ([5]; A. baumannii ATCC 17978): ≥16 | MIC in presence of colistin ([5]; A. baumannii ATCC 17978): 32 µg/mL | MIC [5, 20]: > 512 µg/mL | Average FIC index [13]: 0.33

Structure (SMILES): CCCCn1c(=O)c(C(=O)NC2CCCCCCC2)c(O)c2nn(C)cc21 [Is, 4-(1-Butyl)-N-cyclooctyl-4,5-dihydro-7-hydroxy-2-methyl-5-oxo-2H-pyrazolo[4,3-b]pyridin-6-carboxamide]
MIC [7, 14]: 512 µg/mL | MIC [8, 15]: 32 µg/mL | MIC [9, 16]: 32 µg/mL | MIC [10, 17]: 32 µg/mL | Potentiation fold ([3]; E. coli CCUG^T): ≥16 | MIC in presence of colistin ([3]; E. coli CCUG^T): 32 µg/mL | MIC [3, 18]: > 512 µg/mL | Potentiation fold ([4]; K. pneumoniae ATCC 13833): ≥16 | MIC in presence of colistin ([4]; K. pneumoniae ATCC 13833): 32 µg/mL | MIC [4, 19]: > 512 µg/mL | Potentiation fold ([5]; A. baumannii ATCC 17978): ≥16 | MIC in presence of colistin ([5]; A. baumannii ATCC 17978): 32 µg/mL | MIC [5, 20]: > 512 µg/mL

Structure (SMILES): CCCCCn1c(=O)c(C(=O)NC23CC4CC(CC(C4)C2)C3)c(O)c2nn(CCO)cc21 [In, N-(Adamantan-1-yl)-4,5-dihydro-7-hydroxy-2-(2-hydroxyethyl)-5-oxo-4-(1-pentyl)-2H-pyrazolo[4,3-b]pyridin-6-carboxamide]
Average FIC index [6]: 0.32 | Potentiation fold ([3]; E. coli CCUG^T): ≥8 | MIC in presence of colistin ([3]; E. coli CCUG^T): 64 µg/mL | MIC [3]: > 512 µg/mL | Potentiation fold ([4]; K. pneumoniae ATCC 13833): ≥32 | MIC in presence of colistin ([4]; K. pneumoniae ATCC 13833): 16 µg/mL | MIC [4]: > 512 µg/mL | Potentiation fold ([5]; A. baumannii ATCC 17978): ≥16 | MIC in presence of colistin ([5]; A. baumannii ATCC 17978): 32 µg/mL | MIC [5]: > 512 µg/mL
